Seven compounds from PMC12720098, “Prolintane analogs as hybrid monoamine transporter ligands: Structural determinants and species differences” (The Journal of Biological Chemistry, 2025) can be followed below.

Read-outs that look alike come from different tables or passages of the source.

Test [1] addresses T1, hDAT (Homo sapiens, UniProt Q01959).
T1 construct: expressed in transfected cells
In words: Uptake inhibition assay ([3H]DA) in transfected HEK293 cells. Particulars: for DAT/SERT ratio: human isoform (h), 1/DAT IC50 / 1/SERT IC50. Format: cell-based. As for the experimental part: (§1) HEK293 cells stably expressing human monoamine transporters hSERT, hDAT or hNET were seeded into poly-D-lysine (PDL) coated 96-well plates with a density of approximately 36,000 cells per well 1 day prior to experiments. A day after seeding, the cell medium was replaced with 200 μl Krebs-HEPES-buffer (KHB; 120 mM NaCl, 3 mM KCl, 2 mM CaCl2·2H2O, 2 mM MgCl2·6H2O, 20 mM D-glucose, pH = 7.3). The test drugs were initially dissolved in Milli-Q H2O or dimethyl sulfoxide (DMSO) at a concentration of 10 to 100 mM. Then, cells were treated with the respective concentration of the test drug diluted in KHB for 5 min as a pre-incubation step. Subsequently, in the uptake step, the solution was replaced with 50 μl/well diluted drug solution and tritiated substrate (hDAT: 0.1 μM [^3H]DA; hNET: 0.02 μM [^3H]MPP^+; hSERT: 0.1 μM [^3H]5-HT) for 1 min (hDAT, hSERT) or 3 min (hNET). After incubation, cells were immediately washed with 200 μl KHB to stop uptake. Uptake was indirectly measured by quantifying beta emission with liquid scintillation counting (Wallac 1450 MicroBeta TriLux Liquid Scintillation Counter & Lumi; GMI). Therefore, 200 μl Ultima Gold XR scintillation cocktail (PerkinElmer, MA, USA) was added to each well.
(§2) Half-maximal inhibitory concentrations (IC50) were obtained from fitting a sigmoidal dose–response ( Y=Bottom+Top−Bottom/1+10^((LogIC50−X)·HillSlope) ) in GraphPad Prism 10.3.1 (GraphPad Software Inc.). Uptake inhibition data were evaluated by one-way ANOVA followed by Tukey's multiple comparisons test. Release data were analyzed using a two-way ANOVA (batch release) or a mixed-effects model with Geisser-Greenhouse correction (time-dependent traces) employing Šidák correction for comparing differences between compounds with or without the addition of monensin.

Test [2] has as its target T2, hSERT (Homo sapiens, UniProt P31645).
T2 construct: expressed in transfected cells
Type of test: cell-based. Particulars: for Mean of normalized currents elicited through hSERT by drug application: normalized to 10 µM 5-HT current. As for the experimental part:
One day prior to recording, either native HEK293 cells or HEK293 cells stably expressing monoamine transporters were seeded at low density onto PDL-coated 35 mm dishes. Patch-clamp experiments were conducted at a holding potential of −60 mV, with substrate-induced currents recorded at room temperature (20–24 °C) using an […] amplifier and pClamp 11.2 software (MDS Analytical Technologies). During recordings, cells were continuously superfused via a DAD-12 perfusion system and an 8-tube manifold (ALA Scientific Instruments), delivering an external solution composed of 140 mM NaCl, 2.5 mM CaCl2, 3 mM KCl, 2 mM MgCl2, 20 mM glucose, and 10 mM HEPES, with pH adjusted to 7.3 using NaOH. The intracellular pipette solution, designed to mimic physiological ionic conditions, contained 133 mM potassium gluconate, 5.9 mM NaCl, 1 mM CaCl2, 0.7 mM MgCl2, 10 mM HEPES, and 10 mM EGTA, with pH set to 7.2 using KOH. Currents were filtered at 1 kHz and digitized at 10 kHz via a Digidata 1550 digitizer (MDS Analytical Technologies), followed by analysis in Clampfit 10.2 (Molecular Devices). Substance-induced currents were normalized to the current elicited by a saturating concentration of 5-HT (10 μM) of the same cell. Holding currents were subtracted, and a 50 Hz digital Gaussian low-pass filter was applied to the traces for further analysis.

The target in test [3] is rSERT (Rattus norvegicus, UniProt P31652). Nature of the test: Uptake inhibition assay ([3H]5-HT) in rat brain synaptosomes. Format: biochemical. Also on record: As a means to evaluate transporter activity of prolintane analogs in native tissue preparation; from tissue; host or cells: rat brain synaptosomes (whole brain minus caudate and cerebellum). The procedure: Rats were killed by CO2 narcosis and decapitated, then synaptosomes were prepared from brains using standard procedures. In brief, synaptosomes were prepared from caudate tissue for rat DAT (rDAT) assays, or from whole brain minus caudate and cerebellum for rat NET (rNET) and rat SERT (rSERT) assays. Brain tissue was homogenized in ice-cold 10% sucrose followed by centrifugation at 1000g for 10 min. The resulting supernatant containing crude synaptosomes was kept on ice until use in uptake or release procedures. Uptake inhibition and release assays were carried out as previously described ([62], [63]).
For uptake inhibition assays, 5 nM [^3H]dopamine, 10 nM [^3H]norepinephrine, or 5 nM [^3H]5-HT was used as the radiolabeled transmitter for rDAT, rNET, or rSERT, respectively. To optimize uptake for a single transporter, unlabeled blockers were included that prevented uptake of [^3H]transmitter by competing transporters: 50 nM GBR 12935 was added to NET and SERT assays to block DAT, 100 nM nomifensine was added to SERT assays to block NET. Uptake assays were initiated by adding 100 μl of tissue to 900 μl Krebs-phosphate buffer (126 mM NaCl, 2.4 mM KCl, 0.83 mM CaCl2, 0.8 mM MgCl2, 0.5 mM KH2PO4, 0.5 mM Na2SO4, 11.1 mM glucose, 0.05 mM pargyline, 1 mg/ml bovine serum albumin, and 1 mg/ml ascorbic acid, pH 7.4) containing test drug and [^3H]transmitter. Uptake assays were terminated by rapid vacuum filtration, and retained radioactivity was quantified with liquid scintillation counting.
Effects of test drugs on release and uptake inhibition were analyzed by nonlinear regression using GraphPad Prism 9 (GraphPad Scientific, San Diego, CA, USA). Concentration–response values for the uptake inhibition and release were fit to the equation, Y(x)=Ymin+Ymax−Ymin/1+10^((LogP50−LogX)·n) , where x is the concentration of the compound tested, Y(x) is the response measured, Ymax is the maximal response, P50 is either IC50 (the concentration that yields half-maximal uptake inhibition response) or EC50 (the concentration that yields half-maximal release response), and n is the Hill slope parameter.

Test [4] deals with T2, hSERT. In words: Uptake inhibition assay ([3H]5-HT) in transfected HEK293 cells. Type of test: cell-based. As for the experimental part: as §1, §2
The target in test [5] is T3, hNET (Homo sapiens, UniProt P23975).
T3 construct: expressed in transfected cells
In words: Uptake inhibition assay ([3H]MPP+) in transfected HEK293 cells. Format: cell-based. The procedure: as §1, §2

Chain of rSERT (P31652 whole entry): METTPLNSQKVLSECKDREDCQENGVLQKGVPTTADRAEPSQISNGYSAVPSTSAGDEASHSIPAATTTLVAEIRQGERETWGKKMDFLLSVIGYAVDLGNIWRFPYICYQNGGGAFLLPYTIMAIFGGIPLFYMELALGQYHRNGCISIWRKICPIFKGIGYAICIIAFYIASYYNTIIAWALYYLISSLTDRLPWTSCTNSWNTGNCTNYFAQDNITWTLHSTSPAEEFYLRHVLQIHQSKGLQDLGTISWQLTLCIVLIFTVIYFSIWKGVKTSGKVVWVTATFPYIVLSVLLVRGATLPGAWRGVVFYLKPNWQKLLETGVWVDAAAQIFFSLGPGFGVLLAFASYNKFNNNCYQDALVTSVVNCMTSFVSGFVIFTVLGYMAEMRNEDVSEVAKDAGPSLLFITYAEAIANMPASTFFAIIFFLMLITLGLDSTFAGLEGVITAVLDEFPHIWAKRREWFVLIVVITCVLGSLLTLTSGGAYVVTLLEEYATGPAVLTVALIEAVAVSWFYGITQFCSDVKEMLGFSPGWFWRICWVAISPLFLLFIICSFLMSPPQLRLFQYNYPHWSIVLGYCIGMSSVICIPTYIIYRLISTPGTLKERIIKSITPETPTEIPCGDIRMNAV
T3 sequence (P23975 whole entry): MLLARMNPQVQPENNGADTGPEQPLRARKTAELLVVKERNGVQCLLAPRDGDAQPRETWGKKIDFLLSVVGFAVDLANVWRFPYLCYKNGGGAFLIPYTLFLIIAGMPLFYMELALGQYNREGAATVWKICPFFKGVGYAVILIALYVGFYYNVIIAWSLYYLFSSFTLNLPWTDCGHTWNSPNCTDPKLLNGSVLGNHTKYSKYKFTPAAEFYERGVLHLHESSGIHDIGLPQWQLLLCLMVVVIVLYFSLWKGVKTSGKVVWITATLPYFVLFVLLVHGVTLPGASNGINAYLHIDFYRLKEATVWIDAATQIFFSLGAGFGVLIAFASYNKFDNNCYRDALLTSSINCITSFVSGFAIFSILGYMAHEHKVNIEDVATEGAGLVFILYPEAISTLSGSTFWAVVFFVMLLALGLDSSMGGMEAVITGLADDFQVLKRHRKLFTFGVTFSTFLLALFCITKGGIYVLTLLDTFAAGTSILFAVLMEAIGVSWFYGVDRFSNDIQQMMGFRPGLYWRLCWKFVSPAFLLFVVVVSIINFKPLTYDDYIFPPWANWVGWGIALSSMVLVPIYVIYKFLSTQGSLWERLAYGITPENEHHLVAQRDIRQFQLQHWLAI
T2 sequence (P31645 whole entry): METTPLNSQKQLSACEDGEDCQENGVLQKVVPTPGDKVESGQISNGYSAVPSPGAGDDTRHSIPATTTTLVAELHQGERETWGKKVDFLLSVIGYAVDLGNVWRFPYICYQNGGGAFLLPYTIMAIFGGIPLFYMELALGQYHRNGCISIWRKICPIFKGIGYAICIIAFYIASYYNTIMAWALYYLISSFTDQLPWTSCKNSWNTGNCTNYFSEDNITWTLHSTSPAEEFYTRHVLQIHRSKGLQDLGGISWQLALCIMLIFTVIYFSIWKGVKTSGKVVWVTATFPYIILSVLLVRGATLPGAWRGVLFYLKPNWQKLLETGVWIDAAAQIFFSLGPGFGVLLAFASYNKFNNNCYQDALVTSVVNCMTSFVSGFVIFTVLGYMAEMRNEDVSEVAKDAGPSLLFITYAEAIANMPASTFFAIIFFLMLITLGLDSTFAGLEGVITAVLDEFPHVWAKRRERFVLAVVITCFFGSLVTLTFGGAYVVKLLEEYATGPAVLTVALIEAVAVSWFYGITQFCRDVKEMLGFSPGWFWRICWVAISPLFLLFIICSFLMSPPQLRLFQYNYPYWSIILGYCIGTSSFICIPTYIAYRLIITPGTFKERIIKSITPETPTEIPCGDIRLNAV
T1 sequence (Q01959 whole entry): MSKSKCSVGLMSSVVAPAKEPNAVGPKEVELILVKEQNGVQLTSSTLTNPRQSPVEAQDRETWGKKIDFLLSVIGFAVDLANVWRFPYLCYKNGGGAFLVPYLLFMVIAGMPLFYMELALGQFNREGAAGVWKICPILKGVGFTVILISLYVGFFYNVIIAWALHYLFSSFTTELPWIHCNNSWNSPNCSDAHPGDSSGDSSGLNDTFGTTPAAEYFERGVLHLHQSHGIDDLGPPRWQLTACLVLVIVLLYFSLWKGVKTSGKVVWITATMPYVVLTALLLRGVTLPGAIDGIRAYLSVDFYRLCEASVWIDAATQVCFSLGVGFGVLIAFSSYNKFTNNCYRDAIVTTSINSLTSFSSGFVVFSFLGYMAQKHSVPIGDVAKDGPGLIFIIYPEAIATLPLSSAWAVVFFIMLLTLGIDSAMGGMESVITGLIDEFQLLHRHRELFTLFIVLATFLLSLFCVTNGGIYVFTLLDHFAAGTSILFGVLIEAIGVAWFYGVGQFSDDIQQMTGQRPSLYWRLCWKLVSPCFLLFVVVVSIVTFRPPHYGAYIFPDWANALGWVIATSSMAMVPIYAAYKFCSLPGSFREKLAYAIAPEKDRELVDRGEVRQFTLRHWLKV

For `CCCC(Cc1ccccc1)N1CCCC1` (centres unmarked) [Prolintane, 1-(1-phenylpentan-2-yl)pyrrolidine], the IC50 in test [1] came to 43 ± 24 nM; in test [3], 2320 ± 169 nM; in test [4] it was 28600 ± 4010 nM; in test [5] it was 59 ± 7 nM. Moreover, the DAT/SERT ratio in test [1] is given as 670. In addition, in test [2], the “Mean of normalized currents elicited through hSERT by drug application” value was determined as 0.2567. For the same compound, in test [2] (prolintane 30 µM, after 5-HT washout (Fig. S2)), the hSERT-mediated current result is “elicited an inward current”. Also, the “IC50 at rSERT, fold weaker than at rDAT and rNET” value in test [3] (rat brain synaptosomes) is recorded as “about 50 fold”. Further, the “IC50 at hSERT, fold weaker than at hDAT and hNET” value in test [4] (HEK293 cells) is reported as “more than 500 fold”.

On to `CCCC(Cc1cccc(C)c1)N1CCCC1` (centres unmarked) [3-Methylprolintane, 1-[1-(3-methylphenyl)pentan-2-yl]pyrrolidine], for which the IC50 stood at 56 ± 11 nM in test [1], 139 ± 14 nM in test [3], 2950 ± 541 nM in test [4] and 139 ± 33 nM in test [5]. The DAT/SERT ratio in test [1] is reported as 53. Also, in test [2], the “Mean of normalized currents elicited through hSERT by drug application” value was 0.354.

As for `CCCC(Cc1ccccc1F)N1CCCC1` (centres unmarked) [2-Fluoroprolintane, 1-[1-(2-fluorophenyl)pentan-2-yl]pyrrolidine], the IC50 came out at 109 ± 19 nM in test [1], 2230 ± 152 nM in test [3], 35200 ± 9250 nM in test [4] and 102 ± 22 nM in test [5]. Moreover, in test [1], the DAT/SERT ratio amounted to 323. Besides, in test [2], the “Mean of normalized currents elicited through hSERT by drug application” value was found to be 0.28.

For the compound `CCCC(Cc1ccc(F)cc1)N1CCCC1` (centres unmarked) [4-Fluoroprolintane, 1-[1-(4-fluorophenyl)pentan-2-yl]pyrrolidine], the IC50 in test [1] turned out to be 109 ± 41 nM; in test [3], 884 ± 78 nM; in test [4], 19600 ± 2430 nM; in test [5], 307 ± 97 nM. Besides, in test [1], the DAT/SERT ratio came out at 179. In addition, in test [2], the “Mean of normalized currents elicited through hSERT by drug application” value is 0.3167.

For `CCCC(Cc1cccc(F)c1)N1CCCC1` (centres unmarked) [3-Fluoroprolintane, 1-[1-(3-fluorophenyl)pentan-2-yl]pyrrolidine], the IC50 came to 64 ± 20 nM in test [1], 521 ± 116 nM in test [3], 13500 ± 1840 nM in test [4] and 35 ± 11 nM in test [5]. For the same compound, the DAT/SERT ratio in test [1] was determined as 210. Besides, the “Mean of normalized currents elicited through hSERT by drug application” value in test [2] turned out to be 0.306.

As to `CCCC(Cc1ccccc1C)N1CCCC1` (centres unmarked) [2-Methylprolintane, 1-[1-(2-methylphenyl)pentan-2-yl]pyrrolidine], the IC50 in test [1] was 185 ± 65 nM; in test [3] (read-out: [3H]5-HT uptake SERT IC50, rat isoform (r), rat brain synaptosomes, mean ± SD), 323 ± 280 nM; in test [4], 4250 ± 1780 nM; in test [5] it was 119 ± 49 nM. The DAT/SERT ratio in test [1] is 23. The “Mean of normalized currents elicited through hSERT by drug application” value in test [2] amounted to 0.386.

Take `CCCC(Cc1ccc(C)cc1)N1CCCC1` (centres unmarked) [4-Methylprolintane, 1-[1-(4-methylphenyl)pentan-2-yl]pyrrolidine]: the half-inhibitory concentration (IC50) in test [1] is 16 ± 2 nM; in test [3], 72 ± 5 nM; in test [4], 2560 ± 515 nM; in test [5] it was 72 ± 14 nM. Also, the DAT/SERT ratio in test [1] came out at 159. Further, the “inhibitory potency at hDAT compared to pyrovalerone” value in test [1] (pyrovalerone value ref 53) was “four-fold greater”. Also, the “Mean of normalized currents elicited through hSERT by drug application” value in test [2] is 0.21. Besides, the “inhibitory potency at hSERT compared to pyrovalerone, fold greater” value in test [4] (pyrovalerone value ref 53) stood at 10 fold.
